The source of these data is ChEMBL document CHEMBL1201862, “PubChem BioAssay data set” (2004).

By AC50 is commonly meant the concentration giving half of the maximal activity seen.

One series concerns the target Cytochrome P450 2C19 (Homo sapiens, UniProt P33261). The experiment in a line: Cytochrome panel assay with activity outcomes. Panel member name: p450-cyp2c19 Compounds with AC50 equal or less than 10 uM are considered active. It counts as functional.
A short description of series [1]: Trypanosoma cruzi growth suppression in host cells – NIH3T3 host cells, beta-gal luminescence, confirmation (AID 2044).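 Further: intracellular parasites grown in NIH/3T3 mouse fibroblasts as host cells; luminescent beta-galactosidase reporter signal from transgenic T. cruzi replicating inside host cells; inhibitors lower the luminescence signal.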 Format: functional, cell-based.
The nature of series [2]: NIH3T3 cell viability loss – ATP luminescence, mouse fibroblasts, counter-screen, dose response (AID 2010).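 Further: cells exposed to compound for about 90 hours before reading.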 Format: functional, cell-based. In general terms: Counterscreens check selectivity or assay interference.
For series [3], the system named is Streptococcus sp. 'group A'. Description: Streptococcus pyogenes SK(-)GAS viability under kanamycin – luminescence, BacTiterGlo, confirmation, counter-screen for streptokinase expression inhibitor project, dose response (AID 1900). It counts as functional, organism-based.
A further series deals with T1, Streptokinase A (Streptococcus pyogenes serotype M1, UniProt P10520).
T1 sequence (P10520 whole entry): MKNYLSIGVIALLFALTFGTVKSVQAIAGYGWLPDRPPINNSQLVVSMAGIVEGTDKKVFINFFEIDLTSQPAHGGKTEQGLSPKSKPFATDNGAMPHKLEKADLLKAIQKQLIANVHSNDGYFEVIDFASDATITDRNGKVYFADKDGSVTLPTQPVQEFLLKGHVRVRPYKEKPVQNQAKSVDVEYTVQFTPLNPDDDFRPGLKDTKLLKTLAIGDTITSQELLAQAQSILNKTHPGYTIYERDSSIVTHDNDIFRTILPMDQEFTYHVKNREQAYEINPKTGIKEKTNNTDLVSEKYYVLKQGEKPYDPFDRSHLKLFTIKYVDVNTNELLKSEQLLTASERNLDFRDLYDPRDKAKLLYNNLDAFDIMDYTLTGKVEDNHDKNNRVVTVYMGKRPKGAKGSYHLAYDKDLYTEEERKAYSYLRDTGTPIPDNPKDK
Description: viability-normalized secreted streptokinase activity reduction – plasminogen activation absorbance, OD405, dose response (AID 1914).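 Further: secreted streptokinase activity via plasminogen activation per viability signal from cell pellet.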 It counts as functional, Streptococcus pyogenes M1 GAS.

Another series concerns Streptococcus. Description: GAS UMAA2166 growth inhibition – luminescence, BacTiterGlo, counter-screen for streptokinase expression inhibitor project, dose response (AID 1915).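 Further: potency for reduction of bacterial viability or growth.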 Format: functional, organism-based.
Series [4] can be described thus: luciferase reporter signal suppression in cells – H4 neuroglioma cells, luminescence, dose response (AID 1990). Format: functional, cell-based.
Series [5] can be described thus: alpha-synuclein stem-loop luciferase translation blockers – H4 neuroglioma cells, luminescence, confirmation (AID 1988). Format: functional, cell-based.
For series [6], the target named is T2, Corticotropin-releasing factor receptor 2/Corticotropin-releasing factor-binding protein (Homo sapiens, UniProt P24387+Q13324).
T2 sequence (Q13324 whole entry): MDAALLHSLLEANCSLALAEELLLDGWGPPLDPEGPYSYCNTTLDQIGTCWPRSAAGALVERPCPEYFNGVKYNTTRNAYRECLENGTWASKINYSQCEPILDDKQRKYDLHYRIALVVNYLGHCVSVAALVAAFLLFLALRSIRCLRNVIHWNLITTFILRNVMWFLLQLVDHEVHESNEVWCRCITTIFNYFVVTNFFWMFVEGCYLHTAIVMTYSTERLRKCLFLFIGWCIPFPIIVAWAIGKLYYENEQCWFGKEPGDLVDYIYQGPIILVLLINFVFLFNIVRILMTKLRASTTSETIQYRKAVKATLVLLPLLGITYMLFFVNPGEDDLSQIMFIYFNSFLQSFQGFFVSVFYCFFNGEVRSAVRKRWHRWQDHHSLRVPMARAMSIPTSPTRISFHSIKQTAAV
T2 sequence (P24387 whole entry): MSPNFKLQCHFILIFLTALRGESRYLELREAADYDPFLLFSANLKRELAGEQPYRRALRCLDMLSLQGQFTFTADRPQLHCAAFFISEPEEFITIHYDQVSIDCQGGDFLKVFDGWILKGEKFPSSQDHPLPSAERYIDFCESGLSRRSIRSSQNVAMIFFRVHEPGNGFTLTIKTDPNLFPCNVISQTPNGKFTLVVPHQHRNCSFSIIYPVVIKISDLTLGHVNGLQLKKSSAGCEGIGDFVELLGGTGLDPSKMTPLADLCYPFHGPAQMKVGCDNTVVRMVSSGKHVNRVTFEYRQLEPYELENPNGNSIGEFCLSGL
Description: activators of CRF receptor 2 with binding protein – uHTS hits, confirmation (AID 602473). It counts as functional. Particulars: read-out: EC50_Mean.

Calls of active or inactive are those of the source. A value given as a limit tells only on which side of the number the result lay.

Sequence of Cytochrome P450 2C19 (P33261 whole entry): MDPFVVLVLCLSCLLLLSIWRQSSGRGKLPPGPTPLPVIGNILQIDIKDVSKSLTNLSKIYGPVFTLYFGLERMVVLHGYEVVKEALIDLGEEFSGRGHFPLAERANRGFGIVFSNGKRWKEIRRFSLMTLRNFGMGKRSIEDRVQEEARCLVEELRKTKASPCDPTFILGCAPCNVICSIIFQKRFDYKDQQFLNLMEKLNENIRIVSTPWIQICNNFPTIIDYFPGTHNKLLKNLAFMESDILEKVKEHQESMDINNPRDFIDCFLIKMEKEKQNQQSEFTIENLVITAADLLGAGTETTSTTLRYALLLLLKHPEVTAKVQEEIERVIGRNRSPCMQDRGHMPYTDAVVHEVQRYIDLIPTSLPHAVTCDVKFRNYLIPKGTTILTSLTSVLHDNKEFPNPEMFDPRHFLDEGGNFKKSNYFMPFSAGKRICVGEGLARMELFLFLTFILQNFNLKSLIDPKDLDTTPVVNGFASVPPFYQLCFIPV

Take `CN(C)c1ncc2nc(-c3ccccc3)c(=O)n(CCC#N)c2n1`: the AC50 on Cytochrome P450 2C19 (read-out: AC50) was 39.8 µM (inconclusive).

As for `O=C1S/C(=C\c2ccccc2)C(=O)N1CC(O)Cn1c2ccccc2c2ccccc21` (configuration not stated), the EC50 in [1] is 2.64 µM (active); in series [2], 11.5 µM (active).

With `Cc1cc(OCCOCCN2CCCC2)ccc1C(C)C`, the EC50 in [1] was 0.816 µM (active); in series [2] it was 4.6 µM (active).

Consider `COC(=O)c1ccc(OC)c(CN2CCCN(Cc3ccc(F)cc3)S2(=O)=O)c1`, for which the EC50 in series [1] is 1.75 µM (active); in [2] it was > 30 µM (not active).

As for `NNC(=O)CSc1nc(-c2ccccc2)nc2c1CCCC2`, the EC50 (in [3]; on Streptokinase A; in the series with Streptococcus) was > 150 µM (not active) throughout.

In the case of `Cc1cccc(N=Nc2c(C)nn(-c3ccccc3)c2N)c1C`, the EC50 in series [3] is 11.7 µM (active); on Streptokinase A it was 22 µM (active); in the series on Streptococcus, 15.8 µM (active).

Take `O=C(Nc1nnc(SCc2ccc(F)cc2)s1)c1ccc2c(c1)C(=O)N(c1ccccc1Cl)C2=O`: the values for the EC50 (in series [3]; on Streptokinase A; with Streptococcus) were 24.3 µM (active), > 150 µM (not active) and 101 µM (active), respectively.

With `CN1CCN(C(=O)C(=O)c2cn(CC(=O)N3CCCC3)c3ccccc23)CC1`, the EC50 (in series [3]; on Streptokinase A; in the series with Streptococcus) was > 150 µM (not active) throughout.

Consider `COc1ccc(NC(=O)c2ccc([N+](=O)[O-])s2)c([N+](=O)[O-])c1`, for which the EC50 was 1.86 µM (active) in series [1] and > 30 µM (not active) in series [2].

Turning to `Cn1nc([N+](=O)[O-])nc1Oc1ccccc1F`, the EC50 is 0.551 µM (active) in [1] and > 60 µM (not active) in [2].

Turning to `Cc1ccc(S(=O)(=O)N2CCCCC2)cc1NC(=O)Nc1ccc(Cl)cc1Cl`, the EC50 was 1.06 µM (active) in [1] and > 60 µM (not active) in series [2].

With `Cc1cc(C(=O)NCC23CC4CC(CC(C4)C2)C3)c(C)o1`, the EC50 in [1] was 2.84 µM (active); in series [2], > 60 µM (not active).

Take `Cc1ccc(Nc2nc3nonc3[nH]c2=O)cc1Cl`: the EC50 on Streptokinase A is 31.1 µM (active).

In the case of `Cc1ccc(Nc2nc3nonc3nc2O)cc1Cl`, the values for the EC50 (in series [3]; in the series on Streptococcus) were 3.04 µM (active) and 20.6 µM (active), respectively.

For `Cc1ccc(NC(=O)CN(C)Cc2nc(O)c3cc(Br)cc(Br)c3n2)cc1`, the EC50 was 5.34 µM (active) in series [3], > 150 µM (not active) on Streptokinase A and 12.2 µM (active) in the series with Streptococcus.

For `Cn1c(N)c(C(=O)COC(=O)CCc2c[nH]c3ccccc23)c(=O)n(C)c1=O`, the EC50 was 24.6 µM (active) in series [3], > 150 µM (not active) at Streptokinase A and 79.6 µM (active) in the series with Streptococcus.

In the case of `CCc1nnc(NC(=O)c2sc3nc4cc(C)ccc4cc3c2N)s1`, the EC50 in series [3] was 6.73 µM (active); with Streptococcus, 3.95 µM (active).

Regarding `CCOC(=O)C1CCCN(Cc2ccc(OCc3ccccc3)cc2)C1` (configuration not stated), the EC50 in series [1] was 0.108 µM (active); in [2] it was > 60 µM (not active).

For `COc1ccc(-n2ncc3c2CC(C)(C)CC3NC(=O)c2ocnc2C)cc1` (configuration not stated), the EC50 in series [4] and in series [5] was > 120 µM (not active) throughout.

`COc1cc2ccccc2cc1C(=O)Nc1ccc(NC(=O)c2cccs2)cc1`: the EC50 in series [3] is 11.5 µM (active); at Streptokinase A, > 150 µM (not active); in the series on Streptococcus it was 29.2 µM (active).

Regarding `CNc1nc2nc(O)c3c(c2s1)OC(N)=C(C#N)C3c1cccc(F)c1` (configuration not stated), the EC50 in [6] is > 53 µM (inactive).

Take `CN1CCN(C(CNC(=O)c2ccc(Br)o2)c2ccc(F)cc2)CC1` (configuration not stated): the figures for the EC50 in series [1] and in series [2] were 0.865 µM (active) and > 60 µM (not active), respectively.

For `Cc1ccccc1OCCCc1c(C)n[nH]c1C`, the EC50 in series [3] was 19.9 µM (active); on Streptokinase A, > 150 µM (not active); with Streptococcus, > 150 µM (not active).

As for `Cn1c(=O)n(C)c2cc(NS(=O)(=O)c3ccccc3[N+](=O)[O-])ccc21`, the EC50 (in series [3]; on Streptokinase A; in the series with Streptococcus) was > 150 µM (not active) in each case.

Regarding `O=C(CSc1nnc(-c2c[nH]c3ccccc23)o1)N(Cc1ccccc1)c1ccc(F)cc1`, the EC50 in [1] is 1.58 µM (active); in series [2] it was > 60 µM (not active).

For `N#C/C(=C/c1ccc(N2CCCCCC2)o1)c1cccc(F)c1`, the EC50 in series [1] is 2.78 µM (active); in [2] it was > 60 µM (not active).

For `CCOC(=O)C1=NN(C(=O)c2ccc(OC)cc2)C(O)(c2ccc(Cl)cc2)C1` (configuration not stated), the figures for the EC50 (in [3]; at Streptokinase A; in the series with Streptococcus) were 7.85 µM (active), > 150 µM (not active) and 15.7 µM (active), respectively.

For the molecule `O=C(Nc1ccncc1)c1cccc(S(=O)(=O)N2CCN(c3ccc(F)cc3)CC2)c1`, the EC50 was 1.14 µM (active) in series [1] and > 30 µM (not active) in [2].

For `CCOC(=O)C1CCCN(Cc2ccc(O)c(OC)c2)C1` (configuration not stated), the EC50 in [1] was 0.183 µM (active); in series [2], > 60 µM (not active).

Regarding `O=C(COC(=O)CSc1cc(Cl)ccc1Cl)NCc1ccc2c(c1)OCO2`, in series [6], the EC50 was > 53 µM (inactive).

Consider `CSc1nnnc2ccccc12`, for which the AC50 entry at Cytochrome P450 2C19 is reported as “inconclusive”.

For `Cc1ccc(C)c(NC(=O)c2cccc(Oc3ccc([N+](=O)[O-])cc3Cl)c2)c1`, the EC50 in [1] is 1.45 µM (active); in series [2], > 30 µM (not active).

As for `CCN(CC)C(=O)Cn1c(=O)c2ccccc2n2c(=S)sc(-c3cccc(C)c3)c12`, the EC50 in series [6] was > 53 µM (inactive).

As for `COc1ccc(Cc2noc(CN3CCN(C4CCc5ccccc5C4)CC3)n2)cc1OC` (configuration not stated), the EC50 was 1.23 µM (active) in [1] and > 60 µM (not active) in series [2].

Regarding `CC(C)=CCC12Oc3cc(O)ccc3C1(O)Oc1cc(O)c([C@H]3C=C(C)CC(c4ccc(O)cc4O)[C@H]3C(=O)c3ccc(O)cc3O)c(O)c1C2=O` (some centres not stated), the EC50 in series [3] was 1.15 µM (active); in the series on Streptococcus, 1.64 µM (active).

Turning to `O=C(C[C@H]1C[C@H](C(=O)N2CCCCC2)[C@@]2(CCc3ccccc3)c3[nH]c4ccc(Cl)cc4c3CCN2C1=O)NCCN1CCOCC1`, the EC50 in series [6] is > 53 µM (inactive).

Consider `O=C(Cn1nnc(-c2ccccc2)n1)N/N=C/c1cc([N+](=O)[O-])ccc1O`, for which the EC50 in series [3] is 0.421 µM (active); in the series on Streptococcus, 0.55 µM (active).

As to `CCCN(Cc1ccco1)S(=O)(=O)c1ccc(OC)c(OC)c1`, the EC50 (in series [3]; on Streptokinase A; with Streptococcus) was > 150 µM (not active) in each case.

For the molecule `CC(/C=C/C=C/c1ccccc1)=N/NC(=O)c1ccc2c(c1)OCCO2`, the EC50 (in [3]; on Streptokinase A; with Streptococcus) was > 150 µM (not active) in each case.

As for `O=[N+]([O-])c1cccc(-c2ccc(/C=N/NC(=S)Nc3ccccc3)o2)c1`, in [1], the EC50 is 1.99 µM (active).

For the molecule `Oc1ccc(/C=N/Nc2ccc3ccccc3c2)c(O)c1`, the EC50 in [3] was 6.27 µM (active); at Streptokinase A it was > 150 µM (not active); in the series on Streptococcus, 31.9 µM (active).
